Data: ChEMBL document CHEMBL1201862, “PubChem BioAssay data set” (2004)
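Growth conditions: 96-well plates. Treatment: test compound, 48 hours, 5 concentrations. Analysis: linear interpolation between bracketing concentrations; unreached endpoints set to highest concentration. The concentration for 50% growth inhibition is given as GI50.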 Active and inactive are the calls of the source. Cut-off read from the data, not from the text of the source: active = GI50 up to about 1.1 µM and inactive = higher.

Legend:
Test in all cases: inhibition of tumour cell growth, NCI panel, 48 h
786-0 = tested on: 786-0
A498 = tested on: A498
A549 = tested on: A549
ACHN = tested on: ACHN
CAKI-1 = tested on: CAKI-1
CCRF-CEM = tested on: CCRF-CEM
COLO 205 = tested on: COLO 205
DLD-1 = tested on: DLD-1
DMS-114 = tested on: DMS-114
DMS-273 = tested on: DMS-273
EKVX = tested on: EKVX
HCC 2998 = tested on: HCC 2998
HCT-116 = tested on: HCT-116
HCT-15 = tested on: HCT-15
HL-60 = tested on: HL-60
HOP-18 = tested on: HOP-18
HOP-62 = tested on: HOP-62
HOP-92 = tested on: HOP-92
HT-29 = tested on: HT-29
IGROV-1 = tested on: IGROV-1
K562 = tested on: K562
KM-20L2 = tested on: KM-20L2
KM12 = tested on: KM12
LOX IMVI = tested on: LOX IMVI
LXFL 529 = tested on: LXFL 529
M14 = tested on: M14
M19-MEL = tested on: M19-MEL
MOLT-4 = tested on: MOLT-4
Malme-3M = tested on: Malme-3M
NCI-H226 = tested on: NCI-H226
NCI-H23 = tested on: NCI-H23
NCI-H460 = tested on: NCI-H460
NCI-H522 = tested on: NCI-H522
OVCAR-3 = tested on: OVCAR-3
OVCAR-4 = tested on: OVCAR-4
OVCAR-5 = tested on: OVCAR-5
OVCAR-8 = tested on: OVCAR-8
RPMI-8226 = tested on: RPMI-8226
RXF 393 = tested on: RXF 393
RXF 631 = tested on: RXF 631
SF-268 = tested on: SF-268
SF-295 = tested on: SF-295
SF-539 = tested on: SF-539
SK-MEL-28 = tested on: SK-MEL-28
SK-MEL-2 = tested on: SK-MEL-2
SK-MEL-5 = tested on: SK-MEL-5
SK-OV-3 = tested on: SK-OV-3
SN12C = tested on: SN12C
SNB-19 = tested on: SNB-19
SNB-75 = tested on: SNB-75
SNB-78 = tested on: SNB-78
SR = tested on: SR
SW-620 = tested on: SW-620
TK-10 = tested on: TK-10
U-251 = tested on: U-251
UACC-257 = tested on: UACC-257
UACC-62 = tested on: UACC-62
UO-31 = tested on: UO-31
XF498 = tested on: XF498

Measured: GI50

O=C1C2C(C(=O)N1c1ccccc1)C1(Br)c3ccccc3C2(Br)C2C(=O)N(c3ccccc3)C(=O)C21 (centres undefined)
23.8 µM: HCT-15
inactive: 786-0 20.5 µM | A498 21.9 µM | A549 28.1 µM | ACHN 18.1 µM | CAKI-1 64 µM | CCRF-CEM 26.6 µM | COLO 205 > 31.6 µM | DLD-1 16.8 µM | DMS-114 > 31.6 µM | DMS-273 11.7 µM | EKVX > 31.6 µM | HCC 2998 15 µM | HCT-116 28.3 µM | HL-60 > 31.6 µM | HOP-18 18.1 µM | HOP-62 > 10 µM | HOP-92 > 10 µM | HT-29 27.8 µM | IGROV-1 > 31.6 µM | K562 6.27 µM | KM-20L2 24.5 µM | KM12 16.6 µM | LOX IMVI > 31.6 µM | LXFL 529 7.62 µM | M14 > 31.6 µM | M19-MEL > 31.6 µM | MOLT-4 20.6 µM | Malme-3M 30.1 µM | NCI-H226 > 31.6 µM | NCI-H23 17.6 µM | NCI-H460 > 31.6 µM | NCI-H522 > 10 µM | OVCAR-3 > 31.6 µM | OVCAR-4 7.21 µM | OVCAR-5 > 31.6 µM | OVCAR-8 > 100 µM | RPMI-8226 10.6 µM | RXF 393 11 µM | RXF 631 > 100 µM | SF-268 27.7 µM | SF-295 > 100 µM | SF-539 27.2 µM | SK-MEL-28 > 31.6 µM | SK-MEL-2 31.4 µM | SK-MEL-5 > 31.6 µM | SK-OV-3 > 100 µM | SN12C > 31.6 µM | SNB-19 > 31.6 µM | SNB-75 13 µM | SNB-78 12.5 µM | SR > 10 µM | SW-620 > 31.6 µM | TK-10 > 31.6 µM | U-251 > 31.6 µM | UACC-257 > 31.6 µM | UACC-62 23.7 µM | UO-31 17.5 µM | XF498 29.2 µM

CCOc1ccc(/N=N/c2ccc3oc(=O)c(/C(C)=N\NC(=O)CC(=O)Nc4ccc(Cl)cc4)cc3c2)cc1
active: CCRF-CEM 0.337 µM
6.25 µM: HCT-15
inactive: A549 20.7 µM | ACHN 22.4 µM | CAKI-1 > 100 µM | COLO 205 30.5 µM | DLD-1 12.6 µM | DMS-114 15.9 µM | DMS-273 16.3 µM | EKVX 8.36 µM | HCC 2998 16.3 µM | HCT-116 16.4 µM | HOP-62 17.6 µM | HOP-92 25.2 µM | IGROV-1 22 µM | K562 17.3 µM | KM-20L2 > 100 µM | KM12 19.2 µM | LOX IMVI 13.2 µM | LXFL 529 10.8 µM | M19-MEL 27.9 µM | MOLT-4 4.09 µM | Malme-3M 16 µM | NCI-H226 88.9 µM | NCI-H23 18.7 µM | NCI-H522 18.6 µM | OVCAR-3 15.5 µM | OVCAR-4 20.4 µM | OVCAR-5 99.5 µM | OVCAR-8 16.1 µM | RPMI-8226 16.2 µM | RXF 393 14.2 µM | RXF 631 20 µM | SF-268 19.6 µM | SF-295 16.5 µM | SF-539 17.5 µM | SK-MEL-28 36.1 µM | SK-MEL-2 3.43 µM | SK-MEL-5 14.3 µM | SK-OV-3 19.9 µM | SN12C 26.1 µM | SNB-19 27.3 µM | SNB-78 27.9 µM | SR 3.47 µM | SW-620 17.8 µM | TK-10 12.9 µM | U-251 16.4 µM | UACC-62 10.1 µM | UO-31 12.2 µM | XF498 2.07 µM
